Measured values published in patent US6589949B1, “3-oxo-2,1-benzisoxazol-1(3H)-carboxamides for treatment of CNS diseases” (Bayer Aktiengesellschaft, priority 1999, dated 2003).

How the values were obtained:
[1] = molecular target: T1, acylpeptide hydrolase (ACPH) (Rattus norvegicus, UniProt P13676); experiment: In vitro determination of the inhibition of ACPH; format: biochemical; settings: rat brain homogenate; substrate 100 μM N-acetyl-methionyl-aminomethyl-coumarin; 30 min preincubation, 30 min reaction
T1 construct: 50 μl of brain homogenate and 100 μM N-acetyl-methionyl-aminomethyl-coumarin as the enzyme substrate; from tissue; host or cells: rat brain homogenate
T1 sequence (P13676 1-732): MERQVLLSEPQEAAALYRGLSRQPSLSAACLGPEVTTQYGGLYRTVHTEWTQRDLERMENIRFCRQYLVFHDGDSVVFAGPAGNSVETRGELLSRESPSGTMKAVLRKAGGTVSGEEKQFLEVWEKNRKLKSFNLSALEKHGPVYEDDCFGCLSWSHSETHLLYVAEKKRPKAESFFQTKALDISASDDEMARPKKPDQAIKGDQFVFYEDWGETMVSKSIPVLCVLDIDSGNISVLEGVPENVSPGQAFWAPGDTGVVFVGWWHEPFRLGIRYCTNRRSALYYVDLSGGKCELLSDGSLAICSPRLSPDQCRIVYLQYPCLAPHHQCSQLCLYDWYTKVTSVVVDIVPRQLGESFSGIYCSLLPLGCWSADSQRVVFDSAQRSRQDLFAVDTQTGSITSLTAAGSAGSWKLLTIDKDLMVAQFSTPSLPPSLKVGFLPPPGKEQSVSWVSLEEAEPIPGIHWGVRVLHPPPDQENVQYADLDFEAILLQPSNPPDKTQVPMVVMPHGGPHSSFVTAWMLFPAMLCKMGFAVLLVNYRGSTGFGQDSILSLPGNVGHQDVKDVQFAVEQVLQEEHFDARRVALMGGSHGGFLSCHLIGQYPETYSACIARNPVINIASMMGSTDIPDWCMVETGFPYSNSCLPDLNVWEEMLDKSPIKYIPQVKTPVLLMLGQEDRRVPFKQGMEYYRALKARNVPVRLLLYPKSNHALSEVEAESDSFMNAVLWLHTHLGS
Protocol: In vitro determination of the Inhibition of ACPH
In the standard experiment, rat brains are homogenized in a 10-fold volume (w/v) of 50 mM tris HCl buffer, 1 mM EDTA, 100 mM NaCl, 0.1% BSA, 1 mM DDT, pH 7.2. The protein concentration of the homogenate is adjusted to approximately 5 mg/ml by dilution with buffer. The incubation batch (110 μl) contains 40 μl of buffer, various test concentrations of the test substances to be tested in 10 μl of buffer, 50 μl of brain homogenate and 100 μM N-acetyl-methionyl-aminomethyl-coumarin as the enzyme substrate. Before addition of the substrate, the reaction mixture is preincubated at room temperature for 30 min. The enzyme reaction is started by substrate addition. The reaction time is 30 min. Afterwards, the samples are activated in a fluorimeter at 390 nm and determined quantitatively at 460 nm. The IC50 value is calculated from the enzyme activity in the presence of increasing concentrations of test substance in the test. For the measurement of the ACPH activity, purified enzyme from liver or other organs can also be used and also homogenates of other organs having ACPH activity, such as liver or erythrocytes.

Question: Which melting point does the source give for O=C(N1CCOCC1)n1oc(=O)c2cc(Cl)ccc21 [Example 19] here?
Answer: 153 °C

Question: Which IC50 [1] does the source give for CN(C)C(=O)n1oc(=O)c2ccccc21 [Example 5] here?
Answer: 18 nM

Question: And the melting point?
Answer: 93 °C

Question: For O=C(N1CCCC1)n1oc(=O)c2ccccc21 [Example 3], which melting point is on record?
Answer: 99 °C

Question: Which melting point does the source give for O=C(N1CC2CCC2C1)n1oc(=O)c2ccc(Cl)cc21 (centres unmarked) [Example 12] here?
Answer: 98 °C

Question: With O=C(N1CCOCC1)n1oc(=O)c2c(F)cccc21 [Example 14] as the compound, how does the melting point read?
Answer: 141 °C

Question: With O=C(N1CCCC1)n1oc(=O)c2cc(Cl)ccc21 [Example 8] as the compound, how does the melting point read?
Answer: 103 °C

Question: With CN(CCCl)C(=O)n1oc(=O)c2cc(Cl)ccc21 as the compound, how does the melting point read?
Answer: 52 °C

Question: Which results are given for O=C(N1CCCC1)n1oc(=O)c2cc(F)c(F)cc21 [Example 7]?
Answer: IC50 [1]: 99 nM; melting point: 133 °C

Question: For O=C(N1CCC1)n1oc(=O)c2ccccc21 [Example 2], which melting point is on record?
Answer: 163 °C

Question: Which results are given for Cc1ccc2c(c1)c(=O)on2C(=O)N1CCCC1 [Example 6]?
Answer: IC50 [1]: 48 nM; melting point: 129 °C

Question: Which melting point does the source give for O=C(N1CCOCC1)n1oc(=O)c2ccc(Cl)cc21 [Example 10] here?
Answer: 116 °C

Question: For O=C(N1CC2CCC2C1)n1oc(=O)c2cc(Cl)ccc21 (centres unmarked) [Example 15], which melting point is on record?
Answer: 85 °C

Question: Which results are given for O=C(N1CCCC1)n1oc(=O)c2c(F)cccc21 [Example 4]?
Answer: IC50 [1]: 6 nM; melting point: 109 °C
